{"source": "patent US12698293B2", "about": "“Crystal form of macrocyclic compound, and preparation method therefor and use thereof” (HITGEN INC., priority 2021, dated 2026)", "key": {"[1]": {"assay": "Hygroscopicity test by dynamic vapor sorption (DVS)", "assay_type": "physicochemical", "settings": "for hygroscopicity characteristic: DVS, 0-80% relative humidity, China Pharmacopoeia 2020 classes; for weight change with increasing humidity (DVS): between 0-80% relative humidity", "experimental": "The crystal form and amorphous form of the macrocyclic compound provided by the present invention were evaluated for hygroscopicity, and the test was performed using a dynamic vapor sorption to obtain data. The description of the hygroscopicity characteristic and the definition of the weight gain due to hygroscopicity (as shown in Table 2) are referred to China Pharmacopoeia (2020 edition) Part Four General Principles 9103.\nThe adsorption-desorption isotherm of the crystal form prepared in example 1 is shown in FIG. 5, wherein the abscissa is relative humidity and the ordinate is weight (%). […] The adsorption-desorption isotherm of the crystal form prepared in comparative example 1 is shown in FIG. 6, wherein the abscissa is relative humidity and the ordinate is weight (%)."}, "[2]": {"assay": "Stability test on influence factors (high temperature, high humidity, light), purity by HPLC", "assay_type": "physicochemical", "settings": "for change of purity / impurity content during the experimental period (in words): high temperature, high humidity and light, 30 days", "experimental": "The crystal form and the amorphous form of the macrocyclic compound provided by the present invention were subjected to the stability test on influence factors according to China Pharmacopoeia (2020 edition) Part Four General Principles 9103. Specifically, the crystal form of a macrocyclic compound prepared in example 1 and the amorphous form of the macrocyclic compound prepared in comparative example 1 were placed in an open space under the respective conditions of high temperature (60±2° C.), high humidity (90%±5% RH, 25±2° C.) and light (4500±500 Lx) for 30 days to test stability. The observation period was 30 days. The tested samples were taken on days 5, 10 and 30, and analyzed for purity by high performance liquid chromatography."}, "[3]": {"assay": "Pharmacokinetic test in beagle dogs, plasma concentration after oral gavage", "assay_type": "in vivo", "settings": "dog, male beagle dogs, oral single gavage, 8 mg/kg", "experimental": "After grouped (3 Beagle dogs per group), male beagle dogs were orally administered with the crystal form of the macrocyclic compound provided by the present invention via single gavage at a dose of 8 mg/kg. The plasma was collected at 0.25 h, 0.5 h, 1.0 h, 2.0 h, 4.0 h, 6.0 h, 8.0 h, and 24 h after the administration. A standard curve with appropriate range was established based on the concentration of the tested sample to calculate the concentration of the tested sample in plasma. The quantitative analysis was carried out and the pharmacokinetic parameters were calculated for the tested sample. The results are shown in Table 5, wherein Cmax represents the peak concentration, AUC0-last represents the area below the drug-time curve, Tmax represents peak time of the drug and T1/2 represents the half-life of the drug."}, "[4]": {"assay": "Accelerated stability test, crystal form checked by XRPD", "assay_type": "physicochemical", "settings": "40 ± 2° C., relative humidity 75 ± 5%, seal", "experimental": "The crystal form of the macrocyclic compound provided by the present invention was subjected to accelerated stability test to examine stability according to China Pharmacopoeia (2020 edition) Part Four General Principles 9103. Specifically, the crystal form was placed in a sealed space at temperature of 40±2° C. and a relative humidity of 75±5% for 6 months. The sample to be tested was taken at months 1, 2, 3 and 6, and detected using X-ray Powder Diffractometer."}, "[5]": {"settings": "listed as comparative example 1"}}}
{"smiles": "C[C@@H]1CCOc2ccc(F)cc2[C@H]2CCCN2c2ccc3ncc(C#N)c(c3n2)N1", "note": "[Comparative Example 1, (6R,16R)-9-fluoro-16-methyl-13-oxa-2,17,21,25-tetraazapentacyclo [16.6.2.0^2,6.0^7,12.0^22,26]hexacosane-1(25),7,9,11,18(26), 19,21,23-octane-19-carbonitrile]", "values": [{"measurement": "hygroscopicity characteristic", "setting": "[1]; [5]", "result": "very hygroscopic (not less than 15%)"}, {"measurement": "weight change with increasing humidity (DVS)", "setting": "[1]; [5]", "result": "about 21.6%"}, {"measurement": "Sample purity (%)", "setting": "[2]; High humidity (90%±5% RH, 25±2° C.), open, day 5, listed as comparative example 1", "result": 97.9, "unit": "%"}, {"measurement": "Sample purity (%)", "setting": "[2]; High humidity (90%±5% RH, 25±2° C.), open, day 10, listed as comparative example 1", "result": 98.0, "unit": "%"}, {"measurement": "Sample purity (%)", "setting": "[2]; High humidity (90%±5% RH, 25±2° C.), open, day 30, listed as comparative example 1", "result": 97.7, "unit": "%"}, {"measurement": "Sample purity (%)", "setting": "[2]; High temperature (60±2° C.), open, day 5, listed as comparative example 1", "result": 97.6, "unit": "%"}, {"measurement": "Sample purity (%)", "setting": "[2]; High temperature (60±2° C.), open, day 10, listed as comparative example 1", "result": 97.1, "unit": "%"}, {"measurement": "Sample purity (%)", "setting": "[2]; High temperature (60±2° C.), open, day 30, listed as comparative example 1", "result": 96.9, "unit": "%"}, {"measurement": "Sample purity (%)", "setting": "[2]; Light (4500±500 Lx), open, day 5, listed as comparative example 1", "result": 97.4, "unit": "%"}, {"measurement": "Sample purity (%)", "setting": "[2]; Light (4500±500 Lx), open, day 10, listed as comparative example 1", "result": 96.8, "unit": "%"}, {"measurement": "Sample purity (%)", "setting": "[2]; Light (4500±500 Lx), open, day 30, listed as comparative example 1", "result": 96.4, "unit": "%"}, {"measurement": "Sample purity (%)", "setting": "[2]; day 0, listed as comparative example 1", "result": 98.1, "unit": "%"}, {"measurement": "change of purity / impurity content during the experimental period (in words)", "setting": "[2]; [5]", "result": "decrease in purity"}]}
{"smiles": "C[C@@H]1CCOc2ccc(F)cc2[C@H]2CCCN2c2ccc3ncc(C#N)c(c3n2)N1", "note": "[Example 1, (6R,16R)-9-fluoro-16-methyl-13-oxa-2,17,21,25-tetraazapentacyclo [16.6.2.0^2,6.0^7,12.0^22,26]hexacosane-1(25),7,9,11,18(26), 19,21,23-octane-19-carbonitrile]", "values": [{"measurement": "hygroscopicity characteristic", "setting": "[1]; listed as example 1", "result": "not hygroscopic"}, {"measurement": "weight change with increasing humidity (DVS)", "setting": "[1]; listed as example 1", "result": "approximately 0.1%"}, {"measurement": "AUC(0-t)", "setting": "[3]", "result": "5340 ± 1070", "unit": "ng·h/mL"}, {"measurement": "Tmax", "setting": "[3]", "result": "1.3 ± 0.58", "unit": "h"}, {"measurement": "half-life", "setting": "[3]", "result": "19 ± 3.9", "unit": "h"}, {"measurement": "Cmax", "setting": "[3]; read-out: C0/Cmax", "result": "729 ± 208", "unit": "ng/mL"}, {"measurement": "crystal form by XRPD", "setting": "[4]; month 1", "result": "Same as initial crystal form"}, {"measurement": "crystal form by XRPD", "setting": "[4]; month 2", "result": "Same as initial crystal form"}, {"measurement": "crystal form by XRPD", "setting": "[4]; month 3", "result": "Same as initial crystal form"}, {"measurement": "crystal form by XRPD", "setting": "[4]; month 6", "result": "Same as initial crystal form"}, {"measurement": "Sample purity (%)", "setting": "[2]; High humidity (90%±5% RH, 25±2° C.), open, day 5, listed as example 1", "result": 98.8, "unit": "%"}, {"measurement": "Sample purity (%)", "setting": "[2]; High humidity (90%±5% RH, 25±2° C.), open, day 10, listed as example 1", "result": 98.8, "unit": "%"}, {"measurement": "Sample purity (%)", "setting": "[2]; High humidity (90%±5% RH, 25±2° C.), open, day 30, listed as example 1", "result": 98.8, "unit": "%"}, {"measurement": "Sample purity (%)", "setting": "[2]; High temperature (60±2° C.), open, day 5, listed as example 1", "result": 99.0, "unit": "%"}, {"measurement": "Sample purity (%)", "setting": "[2]; High temperature (60±2° C.), open, day 10, listed as example 1", "result": 98.9, "unit": "%"}, {"measurement": "Sample purity (%)", "setting": "[2]; High temperature (60±2° C.), open, day 30, listed as example 1", "result": 98.9, "unit": "%"}, {"measurement": "Sample purity (%)", "setting": "[2]; Light (4500±500 Lx), open, day 5, listed as example 1", "result": 98.9, "unit": "%"}, {"measurement": "Sample purity (%)", "setting": "[2]; Light (4500±500 Lx), open, day 10, listed as example 1", "result": 98.8, "unit": "%"}, {"measurement": "Sample purity (%)", "setting": "[2]; Light (4500±500 Lx), open, day 30, listed as example 1", "result": 98.6, "unit": "%"}, {"measurement": "Sample purity (%)", "setting": "[2]; day 0, listed as example 1", "result": 98.8, "unit": "%"}, {"measurement": "change of purity / impurity content during the experimental period (in words)", "setting": "[2]; listed as example 1", "result": "increased slightly under the light condition only"}]}
